Where “and” joins values, the source holds several entries; their conditions need not be identical. Equal entries are not always repeated.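 Values below derive from 48-hour exposures of cells grown in 96-well plates, with endpoints linearly interpolated between the two concentrations bracketing the appropriate inhibition level. Abbreviation: GI50, concentration required for 50% inhibition of growth. TGI: total growth inhibition.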
Key:
Assay in all cases: DTP human tumour cell line panel, 48 h
HT29 colon = test system: HT29 colon
NCI-H23 lung = test system: NCI-H23 lung
CCRF-CEM leukemia = test system: CCRF-CEM leukemia
SF-539 CNS = test system: SF-539 CNS
OVCAR-8 ovarian = test system: OVCAR-8 ovarian
M14 melanoma = test system: M14 melanoma
LOX IMVI melanoma = test system: LOX IMVI melanoma
SF-295 CNS = test system: SF-295 CNS
KM12 colon = test system: KM12 colon
HL-60(TB) leukemia = test system: HL-60(TB) leukemia

SMILES | TGI (HT29 colon) | GI50 (NCI-H23 lung) | TGI (NCI-H23 lung) | TGI (CCRF-CEM leukemia) | TGI (SF-539 CNS) | TGI (OVCAR-8 ovarian) | GI50 (M14 melanoma) | TGI (M14 melanoma) | GI50 (LOX IMVI melanoma) | TGI (LOX IMVI melanoma) | TGI (SF-295 CNS) | TGI (KM12 colon) | TGI (HL-60(TB) leukemia) | GI50 (HT29 colon) | GI50 (CCRF-CEM leukemia) [µM] | GI50 (SF-539 CNS) | GI50 (OVCAR-8 ovarian) | GI50 (SF-295 CNS) | GI50 (KM12 colon) | GI50 (HL-60(TB) leukemia)
COc1cc(C2c3cc4c(cc3[C@@H](NC3CCN(Cc5ccccc5)CC3)C3COC(=O)[C@H]23)OCO4)cc(OC)c1O (some centres not stated) | 1.93 µM and 0.41 µM | 0.126 µM and 0.0406 µM | 0.623 µM and 0.224 µM | 0.232 µM and 0.12 µM | 0.263 µM and 0.194 µM | 0.587 µM | 0.18 µM and 0.0484 µM | 0.744 µM and 0.346 µM | 0.145 µM and 0.0349 µM | 1.18 µM and 0.231 µM | 0.498 µM and 0.752 µM | 2.23 µM and 1.02 µM | 0.2 µM and 0.0548 µM | – | – | – | – | – | – | –
CC(NNC(=S)N1CCN(c2ccccn2)CC1)c1nccc2ccccc12 (configuration not stated) | 19.1 µM | – | 13.7 µM | 1.02 µM | 6.43 µM | 15.7 µM | – | 2.46 µM | – | 11.2 µM | 11.9 µM | 19 µM | 1.18 µM | – | – | – | – | – | – | –
CCC(=O)OCOc1ccc(/C=C2\CCC(CN(C)C)C2=O)cc1 (configuration not stated) | 25.7 µM | – | 15.8 µM | > 23.1 µM | 17.3 µM | 11.2 µM | – | 9.23 µM | – | 4.1 µM | 20.5 µM | 13 µM | 5.51 µM | – | – | – | – | – | – | –
COc1ccc(N=NC2=C(O)CCC2=O)cc1 | > 100 µM | – | > 100 µM | > 100 µM | > 100 µM | > 100 µM | – | > 100 µM | – | > 100 µM | > 100 µM | > 100 µM | > 100 µM | – | – | – | – | – | – | –
CCN1CCN(c2ccc(NC(=O)Nc3nc4ccc(-c5ccccc5OC)cc4s3)cc2)CC1 | 2.7 µM | 1.67 µM | 3.65 µM | 4.09 µM | 3.03 µM | 3.66 µM | 1.62 µM | 3.03 µM | 1.7 µM | 3.17 µM | 3.09 µM | 3.33 µM | 3.58 µM | 1.31 µM | 1.81 | 1.6 µM | 1.99 µM | 1.68 µM | 1.75 µM | 1.73 µM
COc1cc2c(cc1OCC(=O)Nc1ccc(Cl)cc1C(=O)c1ccccc1Cl)N=CC1CCCN1C2=O (configuration not stated) | 34.2 µM | 13.6 µM | 30.5 µM | > 100 µM | 33.9 µM | 26.3 µM | 14.1 µM | 27.9 µM | 12.1 µM | 26.2 µM | 22.9 µM | 26 µM | 56.2 µM | 11.9 µM | 6.52 | 19.6 µM | 12 µM | 8.48 µM | 11.8 µM | 16.3 µM
Clc1ccc2c(NC3CCC(N4CCCCC4)CC3)ccnc2c1 (configuration not stated) | 40.7 µM | – | > 100 µM | > 100 µM | 36.2 µM | > 100 µM | – | 18.1 µM | – | 33 µM | 36.8 µM | 51.9 µM | 43.5 µM | – | – | – | – | – | – | –
C[C@@H]1CC[C@@H]2[C@@H]1[C@H](OC(=O)/C=C/C1CCCCC1)[C@]1(C3CCCCC3)C[C@@H](OC(=O)CO)[C@@]2(C)O1 | 26.7 µM | 16.6 µM | 31.7 µM | 34.7 µM | 27.9 µM | 24.1 µM | 14.8 µM | 31.6 µM | 14.3 µM | 27.1 µM | 26.7 µM | 31.1 µM | 35.3 µM | 13.1 µM | 16.4 | 14.3 µM | 10.7 µM | 14.3 µM | 14.8 µM | 16.3 µM
Cc1[nH]nc(C(F)(F)F)c1Cc1sc2c(c1C(=O)N1C[C@](C)(O)CO1)c(=O)n(C)c(=O)n2C(C)C | > 100 µM | > 100 µM | > 100 µM | > 100 µM | > 100 µM | > 100 µM | > 100 µM | > 100 µM | > 100 µM | > 100 µM | > 100 µM | > 100 µM | > 100 µM | > 100 µM | > 100 | > 100 µM | > 100 µM | > 100 µM | > 100 µM | > 100 µM
CC(C)[C@@H](C(=O)O[C@@H]1/C=C/C(=O)O[C@@H](C)CCC/C=C/[C@@H]2C[C@H](O)C[C@H]21)N(C)C | 27.3 µM | 23.3 µM | 91.8 µM | 35.1 µM | 67.4 µM | > 83.2 µM | 15.2 µM | 63.2 µM | 17 µM | 39.9 µM | 24.9 µM | 10.2 µM | 36 µM | 5.16 µM | 7.84 | 22.5 µM | 18.1 µM | 6 µM | 2.91 µM | 13.8 µM
OC1OCC(COc2cc(Cl)c(Cl)cc2Cl)OC1O (configuration not stated) | > 100 µM | – | > 100 µM | 89.6 µM | > 100 µM | > 100 µM | – | > 100 µM | – | – | > 100 µM | > 100 µM | 90.9 µM | – | – | – | – | – | – | –
c1ccc2c(N=NSc3ncnc4nc[nH]c34)c3ccccc3nc2c1 | 2.16 µM | 1.7 µM | 5.76 µM | 6.66 µM | 3.55 µM | 2.96 µM | 1.7 µM | 4.12 µM | 0.643 µM | 7.14 µM | 9.63 µM | 10.7 µM | 6.96 µM | 0.398 µM | 1.31 | 1.1 µM | 1.5 µM | 1.13 µM | 1.61 µM | 3.12 µM
COc1ccc2c3ccnc(C(F)(F)F)c3n(CCCCN)c2c1 | 15.8 µM | 8.65 µM | 22.2 µM | 47.8 µM | 20.2 µM | 26.4 µM | 4.93 µM | 17.3 µM | 4.38 µM | 17 µM | 22.6 µM | 17.6 µM | 20.1 µM | 4.01 µM | 9.02 | 6.58 µM | 8.95 µM | 6.71 µM | 5.1 µM | 4.78 µM
O=C1C2=C(C(=O)c3ccccc31)C(O)(S(=O)(=O)O)C(O)(S(=O)(=O)O)C1N=CC=CC21 (configuration not stated) | > 100 µM and 20.8 µM | 3.87 µM and 3.49 µM | 27.6 µM and 18.8 µM | > 100 µM | 19.9 µM and 18.1 µM | > 100 µM and 18.6 µM | 4.83 µM and 3.2 µM | 32.1 µM and 29.4 µM | 3.1 µM and 2.84 µM | 54.9 µM and 20.3 µM | 6.68 µM and 8.19 µM | 67.4 µM and 20 µM | > 100 µM and 20.6 µM | 5.84 µM and 4.51 µM | 6.47 | 4.01 µM and 3.89 µM | 3.46 µM and 4.23 µM | 2.57 µM and 1.13 µM | 4.33 µM and 4.8 µM | 7.83 µM and 4.13 µM
C=CC1=C(C)C(/C=c2\[nH]/c(=C/c3[nH]c(CC4NC(=O)C(C)/C4=C\C)c(C)c3CCC(=O)O)c(CC(=O)O)c2C)=NC1=O (configuration not stated) | > 100 µM | – | > 100 µM | > 100 µM | > 100 µM | > 100 µM | – | > 100 µM | – | > 100 µM | > 100 µM | > 100 µM | > 100 µM | – | – | – | – | – | – | –
